From the CheMixHub ionic liquid set
± gives the uncertainty stated by the source.

Experiment: xn = mol fraction of the nth substance listed
Conditions: 298.15 K, 101 kPa

## CC[NH3+].O=[N+]([O-])[O-] + C[N+](=O)[O-]
x1 = 0.0084
  electrical conductivity: 0.0847 ± 0.0009 S/m
  viscosity: 0.671 ± 0.027 mPa·s
x2 = 0
  electrical conductivity: 2.27 ± 0.023 S/m
  viscosity: 37.5 ± 1.6 mPa·s
x2 = 0.5996
  electrical conductivity: 2.42 ± 0.026 S/m
  viscosity: 5.95 ± 0.25 mPa·s
